# Data published in patent publication US20110217355A1, “CONTACT LENS BASED BIOACTIVE AGENT DELIVERY SYSTEM” (priority 2007, published 2011).
# Read-outs that look alike come from different tables or passages of the source.
# Columns and labels:
# [1] = Physical properties of the surfactants obtained from literature; format: physicochemical; conditions: carbons in hydrophobic tail / total carbons
# Experimental: Table 3 lists the surfactants utilized in this study and their relevant physical properties obtained from literature. The value of ‘fh’ is also listed, this is defined as the fraction of hydrophobic chain length of the surfactant and is calculated by taking the ratio of number of carbons in the hydrophobic tail of the surfactant to the total number of carbons present in the surfactant.
# [2] = Surfactant release experiments from hydrogels in DI water (surface tension); format: physicochemical; conditions: for Slope (surfactant release vs rescaled time): p-HEMA gels, slope = √(2DSC*×100); for DSC*: surfactant diffusivity times critical aggregation concentration in p-HEMA gel, from fitting surfactant release data
# Experimental: The rates of surfactant release were measured in 3.5 ml of DI water with water replacement after each measurement to maintain perfect sink conditions. The surfactant concentration in the release medium was determined by measuring surface tension (σ), which was then related to the concentration through a σ(C) calibration curve. The surface tension was measured by using a Wilhelmy plate (sand blasted platinum plate) attached to a Scaime France Microbalance which was further connected to a Stathan Universal transducer (SC001).
# The rate of surfactant release from surfactant-laden contact lenses needs to be measured because an excessive release could lead to toxicity. Additionally, the rate of surfactant release impacts drug release. As described in the previous section, the surfactant concentration in the release medium was determined by measuring the surface tension of the solution, which is related to the bulk concentration (Data not shown).
# where DS is the surfactant diffusivity, C* is the critical aggregation concentration (CAC), i.e., the concentration beyond which the surfactant aggregates inside the gel, t is time, Cp is the concentration of the surfactant present as aggregates inside the hydrogel, and h is the half-thickness of the hydrogel. The above equation is valid for diffusion of any solute that is loaded in the gel above saturation limit and so a fraction of the solute precipitates into aggregates. This equation is the equivalent of the Higuchi equation that is commonly utilized to model drug release from gels [Higuchi T. Rate of release of medicaments from ointment bases containing drugs in suspension. Journal of Pharmaceutical Sciences 1961; 50(10):874-875].
# To validate the model and to understand the mechanism of surfactant transport, surfactant release studies were conducted from gels of different surfactant loadings (approximately 2%, 4% and 8% w/w in drug gel) and different gel thicknesses (˜100 and 200 μm in dry state). FIG. 8a-c show the surfactant release from 100 μm thick and 200 μm thick gels with three different surfactant concentration explored for 200 μm thick gels. The data is re-plotted in FIG. 9a-c with time axis rescaled to
# The fact that association of Brij 700 with the gel matrix is strongly dependant on the gel thickness may be due to large number of ethylene oxide (EO) units in the surfactant.
# The slope indicated in FIG. 9(a-c) represents the value of √{square root over (2DSC*×100)}.
# As mentioned above, the critical aggregation concentration for Brij 700 in p-HEMA gels is more than 1%, and so the release data from gels loaded with 1% (w/w) can be fitted to the following equation to obtain the surfactant diffusivity [Ritger P L, Peppas N A. A simple equation for description of solute release 1. Fickian and non-Fickian release from mom-swellable devices in the form of slabs, spheres, cylinders and discs. Journal of Controlled Release 1987; 5:23-36].
# Here DS is the diffusivity of the surfactant and h is the half-thickness of the gel. The diffusivity of Brij 700 from these hydrogels was determined to be 7.85×10^−17 m^2/s and subsequently the value of C* was evaluated from the already determined parameter ‘DsC*’ (Table 4) to be 2.4±1.1 mM, which is equivalent to 1.12±0.51% surfactant in a dry gel. This value is in reasonable agreement with the hypothesis C* for Brij 700 is approximately 2%, which was based on the overlapping percentage release data for 1% and 2% Brij 700 loaded gels.
# [3] = calculated earlier (Kapoor and Chauhan 2008), reported for comparison; cited from earlier work
# [4] = system: cornea; conditions: exposure to 0.05% solution for about 5 hours; cited from earlier work
fh (fraction of hydrophobic chain length of the surfactant) [1],Slope (surfactant release vs rescaled time) [2],DSC* [2],average release of surfactant ([2]; 100 micron thick gel with 8% loading),"amount of surfactant released ([2]; 100 micron thick gel with 8% loading, 10 days)","surfactant released from gel ([2]; 100 micron thick gel with 8% loading, period of 10 days)","surfactant released into the post lens tear film ([2]; at the most half of the average release, lens on an eye)",C* as surfactant in a dry gel ([2]; equivalent of the mM value),"C* (critical aggregation concentration) ([2]; in p-HEMA gel, evaluated from DsC* and DS)",diffusivity of the surfactant from hydrogels (DS) ([2]; p-HEMA gels loaded with 1% (w/w) surfactant),Substance,DSC* [3],Slope (surfactant release vs rescaled time) [3],corneal hydration [4]
0.47,0.4802 ± 0.010,11.52 (μm)^2M/s × 10^6,–,–,–,–,–,–,–,POE (10) oleyl ether [Brij 97],–,–,–
0.31,–,–,–,–,–,–,–,–,–,POE (20) oleyl ether [Brij 98],60.80 (μm)^2M/s × 10^6,1.1000 ± 0.013,–
0.31,0.1846 ± 0.050,1.70 (μm)^2M/s × 10^6,about 30 μg/day,around 300 μg,about 10%,≤ 15 µg/day,–,–,–,POE (20) stearyl ether [Brij 78],–,–,does not lead to any significant increase in corneal hydration
0.08,0.0613 ± 0.013,0.19 (μm)^2M/s × 10^6,–,–,–,–,1.12±0.51%,2.4 ± 1.1 mM,7.85×10^−17 m^2/s,POE (100) stearyl ether [Brij 700],–,–,–
